Assay results taken from ChEMBL document CHEMBL1909046, “DrugMatrix in vitro pharmacology data”.

Legend:
[1] = DRUGMATRIX: Calcium Channel Type L, Benzothiazepine radioligand binding (ligand: [3H] Diltiazem); format: cell membranes, Rattus norvegicus, Wistar, Brain, Membrane; conditions: Not Active = under 50% inhibition at 10 µM
Carbonic anhydrase 2 = Carbonic anhydrase 2 (Homo sapiens, UniProt P00918); assay: DRUGMATRIX: Carbonic Anhydrase II enzyme inhibition (substrate: 4-Nitrophenyl acetate (4-NPA)); format: tissue-based, Erythrocyte; conditions: erythrocyte; Not Active = under 50% inhibition at 10 µM
[2] = DRUGMATRIX: Glutamate, AMPA radioligand binding (ligand: [3H] AMPA); format: cell membranes, Rattus norvegicus, Wistar, Cerebral cortex, Membrane; conditions: Not Active = under 50% inhibition at 10 µM
[3] = DRUGMATRIX: Leukotriene, BLT (LTB4) radioligand binding (ligand: [3H]LTB4); format: cell membranes, Membrane; conditions: u-937; Not Active = under 50% inhibition at 10 µM
[4] = target: T1, Cysteinyl leukotriene receptor 1 (Homo sapiens, UniProt Q9Y271); format: cell membranes, CHO-K1, Membrane; conditions: cho-k1; further: in other assays of this panel Not Active means under 50% inhibition at 10 µM
T1 sequence (Q9Y271 whole entry): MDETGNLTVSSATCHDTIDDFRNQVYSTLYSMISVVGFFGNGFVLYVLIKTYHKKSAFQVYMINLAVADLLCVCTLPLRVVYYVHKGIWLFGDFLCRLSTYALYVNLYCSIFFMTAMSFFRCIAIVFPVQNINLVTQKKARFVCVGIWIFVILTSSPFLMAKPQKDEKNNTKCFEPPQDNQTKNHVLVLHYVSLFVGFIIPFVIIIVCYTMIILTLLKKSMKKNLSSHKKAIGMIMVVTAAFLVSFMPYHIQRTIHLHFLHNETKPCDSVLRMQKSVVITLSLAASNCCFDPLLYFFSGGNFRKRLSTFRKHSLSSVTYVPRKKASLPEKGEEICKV

[5] = target: T2, Amine oxidase [flavin-containing] A (Homo sapiens, UniProt P21397); assay: DRUGMATRIX: Monoamine Oxidase MAO-A enzyme inhibition (substrate: Kynuramine); design: species or system BTI-TN-5B1-4; conditions: bti-tn-5b1-4; Not Active = under 50% inhibition at 10 µM
T2 sequence (P21397 whole entry): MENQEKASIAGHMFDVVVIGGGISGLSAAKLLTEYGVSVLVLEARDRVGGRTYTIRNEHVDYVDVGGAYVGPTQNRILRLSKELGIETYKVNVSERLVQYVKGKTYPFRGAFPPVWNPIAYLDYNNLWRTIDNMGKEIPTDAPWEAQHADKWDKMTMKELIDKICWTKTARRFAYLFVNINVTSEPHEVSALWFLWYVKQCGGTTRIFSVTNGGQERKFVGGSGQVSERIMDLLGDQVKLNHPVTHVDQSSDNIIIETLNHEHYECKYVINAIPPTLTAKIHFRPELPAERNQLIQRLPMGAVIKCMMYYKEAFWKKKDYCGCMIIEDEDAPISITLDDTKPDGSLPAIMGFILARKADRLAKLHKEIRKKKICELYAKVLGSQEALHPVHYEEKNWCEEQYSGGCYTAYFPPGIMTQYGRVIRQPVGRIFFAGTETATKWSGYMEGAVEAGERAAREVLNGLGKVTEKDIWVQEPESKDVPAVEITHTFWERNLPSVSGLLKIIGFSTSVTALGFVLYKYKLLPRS

[6] = target: T3, Neuropeptide Y receptor type 1 (Homo sapiens, UniProt P25929); format: cell membranes, Membrane; conditions: sk-n-mc; further: in other assays of this panel Not Active means under 50% inhibition at 10 µM
T3 sequence (P25929 whole entry): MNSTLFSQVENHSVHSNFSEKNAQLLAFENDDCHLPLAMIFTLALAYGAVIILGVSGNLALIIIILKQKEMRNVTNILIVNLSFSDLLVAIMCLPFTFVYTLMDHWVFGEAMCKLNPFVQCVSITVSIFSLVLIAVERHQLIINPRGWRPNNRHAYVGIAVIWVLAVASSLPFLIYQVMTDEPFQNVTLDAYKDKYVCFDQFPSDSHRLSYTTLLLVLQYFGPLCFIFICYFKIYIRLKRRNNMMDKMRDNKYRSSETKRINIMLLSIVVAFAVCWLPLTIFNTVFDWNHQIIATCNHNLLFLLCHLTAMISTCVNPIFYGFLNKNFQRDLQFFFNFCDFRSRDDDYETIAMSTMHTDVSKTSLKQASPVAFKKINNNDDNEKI

[7] = target: cGMP-specific 3',5'-cyclic phosphodiesterase (Homo sapiens, UniProt O76074); assay: DRUGMATRIX: Phosphodiesterase PDE5 enzyme inhibition (substrate: [3H]cGMP + cGMP); format: tissue-based, Platelet; conditions: platelet; Not Active = under 50% inhibition at 10 µM
[8] = target: Protein kinase C alpha type (Homo sapiens, UniProt P17252); format: cell-based; conditions: sf9;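 further: inhibition of PKCalpha kinase activity measured in an enzyme assay with histone as the phosphorylation substrate; in other assays of this panel Not Active means under 50% inhibition at 10 µM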
Cytochrome P450 1A2 = target: T4, Cytochrome P450 1A2 (Homo sapiens, UniProt P05177); conditions: bti-tn-5b1-4; further: in other assays of this panel Not Active means under 50% inhibition at 10 µM
T4 sequence (P05177 whole entry): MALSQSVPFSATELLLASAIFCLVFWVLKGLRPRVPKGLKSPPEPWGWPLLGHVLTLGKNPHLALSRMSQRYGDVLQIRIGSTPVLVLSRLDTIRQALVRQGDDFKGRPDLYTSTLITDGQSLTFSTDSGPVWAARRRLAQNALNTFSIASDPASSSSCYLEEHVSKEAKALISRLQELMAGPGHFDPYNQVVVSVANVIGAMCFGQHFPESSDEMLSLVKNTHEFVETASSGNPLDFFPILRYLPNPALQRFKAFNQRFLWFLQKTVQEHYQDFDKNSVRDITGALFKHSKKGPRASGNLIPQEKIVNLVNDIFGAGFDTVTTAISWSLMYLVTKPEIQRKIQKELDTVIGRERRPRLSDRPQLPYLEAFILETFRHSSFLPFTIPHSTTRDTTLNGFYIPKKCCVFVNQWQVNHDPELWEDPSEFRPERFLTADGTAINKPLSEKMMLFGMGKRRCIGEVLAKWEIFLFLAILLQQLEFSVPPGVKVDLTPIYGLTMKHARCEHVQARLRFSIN

Cytochrome P450 2D6 = Cytochrome P450 2D6 (Homo sapiens, UniProt P10635); conditions: bti-tn-5b1-4; further: in other assays of this panel Not Active means under 50% inhibition at 10 µM
Sequence of Cytochrome P450 2D6 (P10635 whole entry): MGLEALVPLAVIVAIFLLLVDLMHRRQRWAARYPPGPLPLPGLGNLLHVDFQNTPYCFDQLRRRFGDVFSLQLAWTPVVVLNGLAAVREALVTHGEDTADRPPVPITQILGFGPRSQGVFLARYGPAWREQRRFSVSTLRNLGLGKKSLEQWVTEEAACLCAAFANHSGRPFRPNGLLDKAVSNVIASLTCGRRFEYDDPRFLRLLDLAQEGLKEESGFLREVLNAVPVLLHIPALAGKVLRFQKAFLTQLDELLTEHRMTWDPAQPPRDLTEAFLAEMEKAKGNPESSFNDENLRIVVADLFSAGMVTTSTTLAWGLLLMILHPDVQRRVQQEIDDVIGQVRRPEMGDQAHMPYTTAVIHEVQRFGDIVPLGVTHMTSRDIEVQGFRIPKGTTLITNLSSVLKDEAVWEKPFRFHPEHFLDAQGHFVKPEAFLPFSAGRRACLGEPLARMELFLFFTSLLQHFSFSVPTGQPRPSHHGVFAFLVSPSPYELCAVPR

Estrogen receptor beta = Estrogen receptor beta (Homo sapiens, UniProt Q92731); conditions: sf9; further: in other assays of this panel Not Active means under 50% inhibition at 10 µM
Sequence of Estrogen receptor beta (Q92731 whole entry): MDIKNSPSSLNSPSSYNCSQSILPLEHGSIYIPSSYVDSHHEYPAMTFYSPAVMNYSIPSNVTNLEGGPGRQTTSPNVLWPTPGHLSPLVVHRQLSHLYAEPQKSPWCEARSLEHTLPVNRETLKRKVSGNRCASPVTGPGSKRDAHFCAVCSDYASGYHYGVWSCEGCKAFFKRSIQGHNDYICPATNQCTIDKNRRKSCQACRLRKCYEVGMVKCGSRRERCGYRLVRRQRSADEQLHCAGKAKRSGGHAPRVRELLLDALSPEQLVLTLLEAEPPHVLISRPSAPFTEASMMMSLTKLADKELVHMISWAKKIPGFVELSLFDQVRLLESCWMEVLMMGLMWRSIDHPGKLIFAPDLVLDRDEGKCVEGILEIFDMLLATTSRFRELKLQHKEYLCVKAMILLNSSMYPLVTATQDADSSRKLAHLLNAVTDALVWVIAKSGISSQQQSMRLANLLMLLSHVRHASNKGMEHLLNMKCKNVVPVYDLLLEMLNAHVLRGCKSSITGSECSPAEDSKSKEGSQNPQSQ

NCC[C@H](O)C(=O)N[C@@H]1C[C@H](N)[C@@H](O[C@H]2O[C@H](CN)[C@@H](O)[C@H](O)[C@H]2O)[C@H](O)[C@H]1O[C@H]1O[C@H](CO)[C@@H](O)[C@H](N)[C@H]1O [AMIKACIN]
Not Active: IC50 [1] | Ki [1] | IC50 (Carbonic anhydrase 2) | IC50 [2] | Ki [2] | IC50 [3] | Ki [3] | IC50 [4] | IC50 [5] | IC50 [6] | IC50 [7] | IC50 [8] | IC50 (Cytochrome P450 1A2) | Ki (Cytochrome P450 1A2) | IC50 (Cytochrome P450 2D6) | Ki (Cytochrome P450 2D6) | IC50 (Estrogen receptor beta)

CCOC(=O)OC(C)OC1=C(C(=O)Nc2ccccn2)N(C)S(=O)(=O)c2ccccc21 (configuration not stated) [AMPIROXICAM]
Not Active: IC50 [1] | Ki [1] | IC50 (Carbonic anhydrase 2) | IC50 [2] | Ki [2] | IC50 [3] | Ki [3] | IC50 [4] | IC50 [5] | IC50 [6] | IC50 [7] | IC50 [8] | IC50 (Cytochrome P450 1A2) | Ki (Cytochrome P450 1A2) | IC50 (Cytochrome P450 2D6) | Ki (Cytochrome P450 2D6) | IC50 (Estrogen receptor beta)

N#C[C@H](O[C@@H]1O[C@H](CO[C@@H]2O[C@H](CO)[C@@H](O)[C@H](O)[C@H]2O)[C@@H](O)[C@H](O)[C@H]1O)c1ccccc1 [AMYGDALIN]
Not Active: IC50 [1] | Ki [1] | IC50 (Carbonic anhydrase 2) | IC50 [2] | Ki [2] | IC50 [3] | Ki [3] | IC50 [4] | IC50 [5] | IC50 [6] | IC50 [7] | IC50 [8] | IC50 (Cytochrome P450 1A2) | Ki (Cytochrome P450 1A2) | IC50 (Cytochrome P450 2D6) | Ki (Cytochrome P450 2D6) | IC50 (Estrogen receptor beta)

C=C1[C@@H]2CCC3[C@@](CC[C@@H]4[C@H](C(=O)O)C[C@@H](O[C@@H]5O[C@H](CO)[C@@H](OS(=O)(=O)[O-])[C@H](OS(=O)(=O)[O-])[C@H]5OC(=O)CC(C)C)C[C@@]34C)(C2)[C@@H]1O.[K+].[K+] (some centres not stated) [ATRACTYLOSIDE]
Not Active: IC50 [1] | Ki [1] | IC50 (Carbonic anhydrase 2) | IC50 [2] | Ki [2] | IC50 [3] | Ki [3] | IC50 [4] | IC50 [5] | IC50 [6] | IC50 [7] | IC50 [8] | IC50 (Cytochrome P450 1A2) | Ki (Cytochrome P450 1A2) | IC50 (Cytochrome P450 2D6) | Ki (Cytochrome P450 2D6) | IC50 (Estrogen receptor beta)

Cn1cnc([N+](=O)[O-])c1Sc1ncnc2nc[nH]c12 [AZATHIOPRINE]
Not Active: IC50 [1] | Ki [1] | IC50 (Carbonic anhydrase 2) | IC50 [2] | Ki [2] | IC50 [3] | Ki [3] | IC50 [4] | IC50 [5] | IC50 [6] | IC50 [7] | IC50 [8] | IC50 (Cytochrome P450 1A2) | Ki (Cytochrome P450 1A2) | IC50 (Cytochrome P450 2D6) | Ki (Cytochrome P450 2D6) | IC50 (Estrogen receptor beta)

CC1(C)S[C@@H]2[C@H](NC(=O)[C@H](NC(=O)N3CCNC3=O)c3ccccc3)C(=O)N2[C@H]1C(=O)O [AZLOCILLIN]
Not Active: IC50 [1] | Ki [1] | IC50 (Carbonic anhydrase 2) | IC50 [2] | Ki [2] | IC50 [3] | Ki [3] | IC50 [4] | IC50 [5] | IC50 [6] | IC50 [7] | IC50 [8] | IC50 (Cytochrome P450 1A2) | Ki (Cytochrome P450 1A2) | IC50 (Cytochrome P450 2D6) | Ki (Cytochrome P450 2D6) | IC50 (Estrogen receptor beta)
